How the values were obtained:
[1] = Induction of NO release per molar ratio of compound at 250 uM irradiated with 400 to 440 nm light in presence of Fe-DETC complex by ESR spectrometry; type: physicochemical
[2] = Induction of NO release per molar ratio of compound at 250 uM irradiated with 450 to 480 nm light in presence of Fe-DETC complex by ESR spectrometry; type: physicochemical

Compound | Activity [1] | Activity [2]
COc1cc(/C=C/c2cc(OC)c(/C=C/c3cc(C)c([N+](=O)[O-])c(C)c3)cc2OC)c(OC)cc1/C=C/c1cc(C)c([N+](=O)[O-])c(C)c1 | 1% | 0.86%
COc1cc(/C=C/c2cc(C)c([N+](=O)[O-])c(C)c2)c(OC)cc1/C=C/C=C/c1cc(OC)c(/C=C/c2cc(C)c([N+](=O)[O-])c(C)c2)cc1OC | 0.96% | 0.54%
COc1cc(/C=C/c2cc(C)c([N+](=O)[O-])c(C)c2)c(OC)cc1C#Cc1cc(OC)c(/C=C/c2cc(C)c([N+](=O)[O-])c(C)c2)cc1OC | 9.2% | 
COc1cc(/C=C/c2cc(C)c([N+](=O)[O-])c(C)c2)c(OC)cc1C#CC#Cc1cc(OC)c(/C=C/c2cc(C)c([N+](=O)[O-])c(C)c2)cc1OC | 9.7% | 
